In article PMC11039737, “Exploring a repurposed candidate with dual hIDO1/hTDO2 inhibitory potential for anticancer efficacy identified through pharmacophore-based virtual screening and in vitro evaluation” (Scientific Reports, 2024) one finds IC50 data, which are given here for 1 compound.

A word on the IC50: it is the concentration that inhibits the measured activity by half. Higher therefore signals weaker potency in that assay.

In assay [1] the target is T1, human Tryptophan 2,3-dioxygenase 2 (hTDO2) (Homo sapiens, UniProt P48775).
T1 construct: gene TDO2
Description: TDO2 Fluorogenic Inhibitor Screening Assay Kit (Catalog # […]), enzymatic dose response. It counts as biochemical.

In assay [2] the target is T2, human Indoleamine 2,3-dioxygenase 1 (hIDO1) (Homo sapiens, UniProt P14902).
T2 construct: gene IDO1
Nature of the assay: IDO1 Inhibitor Screening Assay Kit (Catalog # […]), enzymatic dose response. It counts as biochemical.

Molecules are shown by their SMILES.

T1 sequence (P48775 whole entry): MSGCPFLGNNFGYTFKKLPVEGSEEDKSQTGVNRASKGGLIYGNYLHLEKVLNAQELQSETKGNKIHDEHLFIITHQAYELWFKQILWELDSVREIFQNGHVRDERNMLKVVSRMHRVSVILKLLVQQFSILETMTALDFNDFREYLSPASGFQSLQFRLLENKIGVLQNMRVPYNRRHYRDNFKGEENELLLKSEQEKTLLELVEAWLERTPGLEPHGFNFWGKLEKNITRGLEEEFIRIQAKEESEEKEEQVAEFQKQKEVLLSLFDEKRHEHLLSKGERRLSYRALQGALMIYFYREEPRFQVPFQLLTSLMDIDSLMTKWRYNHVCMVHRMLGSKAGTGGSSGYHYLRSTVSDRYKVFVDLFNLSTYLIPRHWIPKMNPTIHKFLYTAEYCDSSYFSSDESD
T2 sequence (P14902 whole entry): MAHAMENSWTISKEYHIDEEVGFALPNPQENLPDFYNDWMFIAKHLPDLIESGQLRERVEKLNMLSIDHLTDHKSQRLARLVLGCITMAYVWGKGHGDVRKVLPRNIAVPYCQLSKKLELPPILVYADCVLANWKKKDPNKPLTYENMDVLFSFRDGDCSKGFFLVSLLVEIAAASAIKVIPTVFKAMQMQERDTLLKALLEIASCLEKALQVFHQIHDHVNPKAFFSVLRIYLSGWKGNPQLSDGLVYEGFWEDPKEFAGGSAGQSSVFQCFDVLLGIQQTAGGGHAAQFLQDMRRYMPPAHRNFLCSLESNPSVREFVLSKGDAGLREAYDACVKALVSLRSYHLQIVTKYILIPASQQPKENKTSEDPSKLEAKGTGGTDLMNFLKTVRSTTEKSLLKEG

In the case of `O=C(O)C[C@H](O)C[C@H](O)/C=C/c1c(C2CC2)nc2ccccc2c1-c1ccc(F)cc1` [Pitavastatin], the IC50 was 588 ± 27 nM in assay [1] and 351 ± 16 nM in assay [2].
